What was measured:
Details in all cases: incubation time: 72 h
MDA-MB-468 [1] = assay: drug sensitivity score (DSS), CellTiter-Blue viability (DSS (AUC-based score)); higher = stronger viability inhibition; extreme values may be limits of the assay
Protocol: (§1)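 DSRT with the CellTiter-Blue (resazurin reduction) viability readout, fluorescence 560/590 nm, 72 h incubation. Plates were normalised to DMSO and benzethonium chloride controls. DSS is computed from the area under the fitted dose-response curve (5 or 9 concentrations).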

MFM-223 = assay: as above
Protocol: as §1

CAL-85-1 [2] = assay: as above
Protocol: as §1

BT-549 = assay: as above
Protocol: as §1

CAL-120 [3] = assay: as above
Protocol: as §1

HCC1937 [4] = assay: as above
Protocol: as §1

MDA-MB-231 [5] = assay: as above
Protocol: as §1

HCC1599 [6] = assay: as above
Protocol: as §1

CAL-148 [7] = assay: as above
Protocol: as §1

CAL-51 = assay: as above
Protocol: as §1

HCC1143 [8] = assay: as above
Protocol: as §1

BT-474 = assay: as above
Protocol: as §1

DU-4475 = assay: as above
Protocol: as §1

MDA-MB-453 = assay: as above
Protocol: as §1

MDA-MB-468 [9] = assay: normalised viability (% of control), CellTiter-Blue; higher = more viable cells (about 100 = DMSO control)
In short: (§2)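 Compound dissolved in 5 µl medium was pre-loaded into 384-well plates, and breast cancer cell lines in 20 µl suspension were seeded on top and incubated 72 h. After adding 2.5 µl CellTiter-Blue reagent for 2 h at 37 °C, fluorescence was read at 560/590 nm. Plates were normalised to vehicle (100) and a positive kill control (0), with Z'-factor quality control. Each value is normalised viability at a single listed concentration from the series.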

CAL-85-1 [10] = assay: as above
In short: as §2

CAL-120 [11] = assay: as above
In short: as §2

Hs578T = assay: as above
In short: as §2

HCC1937 [12] = assay: as above
In short: as §2

MDA-MB-231 [13] = assay: as above
In short: as §2

HDQ-P1 = assay: as above
In short: as §2

HCC1599 [14] = assay: as above
In short: as §2

CAL-148 [15] = assay: as above
In short: as §2

MDA-MB-436 = assay: as above
In short: as §2

HCC1143 [16] = assay: as above
In short: as §2

Cc1cc(Nc2cc(CN3CCOCC3)c3nc(C)c(Cc4ccc(Cl)cc4F)n3n2)n[nH]1
Details	drug sensitivity score
BT-474	3.02
BT-549	6.94
CAL-51	6.91
CAL-85-1 [2]	4.09
CAL-120 [3]	8.01
CAL-148 [7]	0
DU-4475	4.98
HCC1143 [8]	11.4
HCC1599 [6]	0
HCC1937 [4]	6.84
MDA-MB-231 [5]	7.21
MDA-MB-453	10.2
MDA-MB-468 [1]	10.3
MFM-223	13.5

normalised viability [%]
Details	3 nM	10 nM	30 nM	100 nM	1000 nM	10000 nM
CAL-85-1 [10]	87.2	–	83.3	93.1	–	–
CAL-120 [11]	–	83.7	–	–	57.6	14.8
CAL-148 [15]	84.1	–	87.7	88.2	–	–
HCC1143 [16]	–	78.1	–	–	58.9	35.5
HCC1599 [14]	–	109	–	–	90.5	92
HCC1937 [12]	–	80.4	–	–	64.7	44
HDQ-P1	89.9	–	82	82.4	–	–
Hs578T	–	110	–	–	81.6	2.66
MDA-MB-231 [13]	–	102	–	–	83.6	18.7
MDA-MB-436	–	109	–	–	71.1	36.8
MDA-MB-468 [9]	–	103	–	–	61.4	7.11

O=P1(N(CCCl)CCCl)NCCCO1 (stereo not drawn) [Cyclophosphamide]
Details	drug sensitivity score
BT-474	0
BT-549	0
CAL-51	0
CAL-85-1 [2]	0
CAL-120 [3]	0
CAL-148 [7]	0
DU-4475	0
HCC1143 [8]	0
HCC1599 [6]	0
HCC1937 [4]	0
MDA-MB-231 [5]	0
MDA-MB-453	0
MDA-MB-468 [1]	0
MFM-223	0

normalised viability [%]
Details	12 nM	40 nM	120 nM	400 nM	4000 nM	40000 nM
CAL-85-1 [10]	98.8	–	89.9	97.5	–	–
CAL-120 [11]	–	97.1	–	–	95.7	83.8
CAL-148 [15]	100	–	102	109	–	–
HCC1143 [16]	–	84.1	–	–	93.6	87.3
HCC1599 [14]	–	89.4	–	–	78	91.5
HCC1937 [12]	–	98.3	–	–	111	98.5
HDQ-P1	119	–	109	104	–	–
Hs578T	–	107	–	–	108	112
MDA-MB-231 [13]	–	101	–	–	96.9	96.9
MDA-MB-436	–	108	–	–	83.7	83.9
MDA-MB-468 [9]	–	102	–	–	100	106

Cc1ccc(NC(=O)c2ccc(CN3CCN(C)CC3)cc2)cc1Nc1nc(-c2cccnc2)cs1 [Masitinib]
Details	drug sensitivity score
BT-474	0
BT-549	0
CAL-51	0
CAL-85-1 [2]	0
CAL-120 [3]	0
CAL-148 [7]	0
DU-4475	0
HCC1143 [8]	0
HCC1599 [6]	0
HCC1937 [4]	0
MDA-MB-231 [5]	0
MDA-MB-453	4.09
MDA-MB-468 [1]	0
MFM-223	0

normalised viability [%]
Details	3 nM	10 nM	30 nM	100 nM	1000 nM	10000 nM
CAL-85-1 [10]	94.8	–	75.5	90.8	–	–
CAL-120 [11]	–	82.4	–	–	81.8	79.3
CAL-148 [15]	80.9	–	82.8	90.6	–	–
HCC1143 [16]	–	77.4	–	–	88.7	85.5
HCC1599 [14]	–	86.2	–	–	97.6	95.8
HCC1937 [12]	–	97.3	–	–	99.5	84.8
HDQ-P1	94	–	92.9	99.5	–	–
Hs578T	–	113	–	–	113	81.4
MDA-MB-231 [13]	–	96.7	–	–	91.1	50.4
MDA-MB-436	–	97.5	–	–	111	72.4
MDA-MB-468 [9]	–	93.3	–	–	105	53.4

O=C(Nc1ccncc1)C(=O)c1cn(Cc2ccc(Cl)cc2)c2ccccc12 [Indibulin]
Details	drug sensitivity score
BT-474	18.3
BT-549	16.6
CAL-51	10.8
CAL-85-1 [2]	11.8
CAL-120 [3]	22.2
CAL-148 [7]	2.12
DU-4475	7.93
HCC1143 [8]	16.4
HCC1599 [6]	0
HCC1937 [4]	25.9
MDA-MB-231 [5]	20.7
MDA-MB-453	18
MDA-MB-468 [1]	15.3
MFM-223	5.75

normalised viability [%]
Details	3 nM	10 nM	30 nM	100 nM	1000 nM	10000 nM
CAL-85-1 [10]	102	–	91.3	95	–	–
CAL-120 [11]	–	85.7	–	–	35.9	28.1
CAL-148 [15]	95.4	–	92.1	94.5	–	–
HCC1143 [16]	–	80.7	–	–	41.1	41
HCC1599 [14]	–	113	–	–	124	103
HCC1937 [12]	–	74.5	–	–	21.1	23.1
HDQ-P1	90.5	–	87.7	74.8	–	–
Hs578T	–	110	–	–	56.3	18.5
MDA-MB-231 [13]	–	103	–	–	20.3	16.1
MDA-MB-436	–	111	–	–	41.4	66.3
MDA-MB-468 [9]	–	95.7	–	–	49.8	36.7

Source: the supplement of paper PMC4862054
